Reference: patent publication US20040097454A1, “Method for modulation of cell phenotype” (University Technology Corporation, priority 1999, published 2004)

Legend:
[1] = tested on: CREB-dependent promoter transactivation in BASMC; assay: CREB-dependent Gal4-TKluc reporter in BASMC; type: cell-based, bovine; details: for CREB-dependent promoter transactivation: insulin 100 nM, glucose 25 mM
Experimental: Isoproterenol is well documented to act through cAMP, yet no studies defining its impact on CREB transactivation in SMCs have been reported. In the next experiment, the ability of ISO to drive a CREB dependent reporter construct was determined. BASMC were transfected with Gal4-TKluc plasmid containing the Gal4 promoter and a thymidine kinase enhancer upstream of the gene encoding a luciferase reporter. These cells were cotransfected with control plasmid (pUC19), a plasmid encoding the Gal4 protein alone, or plasmids encoding chimeric Gal4 proteins with either wild type CRF-B (pZI-Gal4-TKluc) or Ser 133 mutated CREB (SeYI33). […] Of note, basal PKA mediated CRE reporter transcription is very high in these cells and is blocked by the PKA inhibitor H89.

[2] = tested on: bovine aorta smooth muscle cells (BASMC); assay: BASMC morphology and α SM actin content on PKA inhibition; type: cell-based
From the text: To confirm literature reports of the importance of cAMP for the smooth muscle cell (SMC) phenotype, bovine aorta smooth muscle cells (BASMC) were examined for changes in morphology and migration upon modulation of PKA activity. These cells are from a single vascular bed and harvested from an ingrown strain of cattle. BASMC are an established model of vascular smooth muscle tissue in culture (Cucina et al., 1999, J. Surg. Res., 82:61-66; Frid et al., 1997, Circ. Res., 81:940-952; Frid et al., Arterioscler Throb Vasc Biol 17:1203-1209,1997; Hatzi et al., 1999, Eur. J. Biochem., 260:825-832; Stenmark et al., Chest 114:82S-90S, 1998; Takahashi et al., Circ Res 84:543-550, 1999; Underwood et al., 1998, J. Vasc. Res., 35:449-460), and are useful for assessing vascular smooth muscle cell proliferation, migration and contraction. […] Specifically, H89 results in loss of SMC “spindle shape” representative of differentiated, contractile phenotype.

[3] = tested on: P-CREB/CREB in BASMC; assay: Acute CREB phosphorylation in BASMC; type: cell-based, bovine; details: acute treatment, confluent BASMC serum starved 48 hours
Experimental: A series of experiments was performed to determine the ability of insulin, IGF-1 and ISO to acutely enhance CREB phosphorylation in BASMC. BASMC were grown to confluence, ss for 48 hours, and acutely treated with insulin, IGF-1, or Iso in the concentrations noted in FIG. 12A-12C.

[4] = tested on: CREB in BASMC; assay: CREB content and phosphorylation in BASMC exposed to high glucose or high insulin; type: cell-based, bovine; details: 72 hours exposure
Experimental: Studies were undertaken in BASMC to examine the impact of high glucose (HG) and/or high insulin (HI) on CREB and ICER content. BASMC were grown to confluence, ss for 24 hours, then treated with the concentrations of insulin and/or glucose.

[5] = tested on: BASMC migration; assay: SMC migration, Boyden chamber; type: cell-based, bovine; details: high glucose 25 mM vs 5 mM, 48 h
Experimental: BASMC were grown to 70% confluence and serum starved for 48 hours. Cells were then treated with 0.1 uM PDGF and assessed for thymidine incorporation (FIG. 10A) and migration (FIG. 10B) as follows. […] Migratory behavior of SMC cells was assessed using a 12 well micro-Boyden chamber apparatus (Transwell Apparatus, Costar, Corning, N.Y.). […] Wells were covered with a Type I collagen-coated PVP-free filter with 8 mm pores (Transwell Apparatus, Costar, Corning, N.Y.). Trypsinized cells were resuspended in serum-free medium containing either chemotactic compounds or vehicle, and plated at a density of 25,000 or 50,000 cells per well in a volume of 100 μL. At the end of the incubation, cells attached to the filter were fixed and stained in Dif Quick (American flospital Supply Corp., McGraw Park, Ill.).

[6] = tested on: ICER in BASMC; assay: ICER protein and mRNA content in BASMC exposed to glucose and insulin; type: cell-based, bovine; details: for ICER protein content: 72 hour; for ICER mRNA: glucose (5 and 25 mM) and insulin (3 and 100 nM), 72 h
Experimental: Next, BASMCs were exposed to either 3 nM or 100 nM insulin for 72 hours and analyzed for mRNA content of ICER. ICER protein was induced by physiological doses of glucose and insulin. […] BASMC were cultured to 90% confluence and treated with glucose (5 and 25 mM) and insulin ([…]) for 72 h. Total RNA was isolated from these cells using Qiagen's RNeasy kit. RNA samples were fractionated on denaturing 1.2% agarose-formaldehyde gels and transferred to Hybond N+ membrane. ICER IIγ CDNA probe was labeled with thermostable alkaline phosphatase using the AlkPhos-Direct kit from Amersham Lifesciences (Buckinghamshire, England). Hybridization, washing and detection by CDP-Star were performed according to manufacturer's protocol.

[7] = tested on: NIH 3T3-L1 preadipocyte cell lines; assay: Adipocyte differentiation assay, Oil Red O staining of triacylglycerol; type: cell-based
Experimental: Differentiation assays were performed on cells growing on 8 chamber microscope slides. […] The cells were treated with a differentiation mixture, muristerone, or both. […] Muristerone was added to medium at a final concentration of 10 uM for the entire 10 day differentiation period. After 10 days in culture, the cells were stained with Oil Red 0 to visualize triacylglycerol vesicles as previously described (Klemm et al., 1998, J. Biol. Chem., 273:917-923), and counterstained with hematoxylin to visualize cell morphology. Cells were observed by brightfield microscopy and representative fields, were photographed.

[8] = tested on: putative CRE sequences of adipocyte-specific gene promoters; assay: Gel retardation assay of recombinant CREB with putative CRE oligonucleotides; type: binding; details: twenty base pair double stranded 32P-labeled oligonucleotides
Experimental: Next, the ability of purified, recombinant CREB to bind double stranded oligonucleotide probes of these sequences in gel retardation assays was tested as previously described in Klemm et al., 1998, J. Biol. Chem., 273:917-923. Twenty base pair, double stranded nucleotides, end labeled with y32P-ATP and polynucleotide kinase, were incubated with purified, recombinant 30 CREB protein. The reactions were separated on nondenaturing, 6% polyacrylamide gels and exposed to Kodak X-ARomat film. […] In these experiments, 5 ug of nuclear extract protein prepared from 3T3-L1 fibroblasts was incubated with the indicated, labeled oligonucleotides either in the absence (−) or presence (+) of CREB specific antibody. The reactions were separated on polyacrylamide gels as described above and exposed to film. […] Obviously, CREB may not bind to some of the tested sequences in the context of their native promoter environment or under conditions found within the cell. Alternately, CREB may interact with the putative CRE sites we have tested in the PPARγ2 and CEBP α promoters under different conditions, or perhaps bind to other sequences in these promoters not identified by visual inspection.

[9] = tested on: BASMC; assay: Cell cycle phase by fluorescence flow cytometry (Krishan's stain) in BASMC with inducible WT CREB; type: cell-based, bovine; details: muristerone-induced expression; 0.1 or 10% serum
Experimental: BASMC were stably transfected with the muristerone-inducible wild-type CREB (WT CREB) expression vector. They were then exposed to serum at 0.1 or 10% with and with exposure to muristerone to induce CREB expression. FIGS. 8A-8D show control cells on the left and muristerone cells on the right. Cells were incubated with Krishan's stain and subjected to fluorescence flow cytometry to assess proliferative capacity to determine phase in the cell cycle. […] This peak was smaller in the cells incubated in low serum. […] The stably transfected clone served as its own control. Preliminary studies were next undertaken to investigate the impact of adenoviral infection with constitutively active CREB (adVP16 CREB) on CRE driven gene expression, proliferation, and migration.

O=S(=O)(NCCNC/C=C/c1ccc(Br)cc1)c1cccc2cnccc12 [H89]
basal PKA mediated CRE reporter transcription [1]: blocked
endogenous CREB kinase activity (Gal4-CREB reporter) ([1]; PKA inhibitor treatment): attenuates high endogenous CREB kinase activity
α SM actin content ([2]; 0-10 uM, 72 hours): decreased α SM actin content
cellular morphology ([2]; 10 uM, 4, 8 and 24 hours, relative to untreated control): significant alterations in cellular morphology

CC(C)NCC(O)c1ccc(O)c(O)c1 (centres unmarked) [Iso, Isoproterenol]
P-CREB/CREB content [3]: acutely increases P-CREB/CREB content

OC[C@H]1OC(O)[C@H](O)[C@@H](O)[C@@H]1O (some centres unmarked) [glucose]
CREB-dependent promoter transactivation [1]: attenuates this activity
CREB phosphorylation (PCREB) [4]: delayed increases in PCREB
change in CREB protein content [4]: −32%
cell migration in Boyden Chamber [5]: increased cell migration
ICER protein content [6]: induced ICER protein
ICER mRNA [6]: increase in ICER mRNA

CC(C)CC[C@@H](O)[C@](C)(O)[C@H]1CC[C@@]2(O)C3=CC(=O)[C@]4(O)C[C@@H](O)[C@@H](O)C[C@]4(C)[C@H]3[C@H](O)C[C@]12C [muristerone, reference compound]
triacylglycerol accumulation (Oil Red O) in control cells ([7]; control cells (pVgRXR, pIND-LacZ), 10 uM muristerone alone, 10 days): No triacylglycerol accumulation

IGF-1: insulin growth factor I
P-CREB/CREB content [3]: acutely increases P-CREB/CREB content

Recombinant CREB: purified, recombinant CREB protein
binding to promoter probes of PEPCK, FABP, FAS, SCD and CEBP genes [8]: able to bind

WT CREB: wild-type CREB expressed from muristerone-inducible vector or adenovirus
cell cycle phase [9]: cell cycle arrest

insulin: insulin; high insulin (HI)
transcriptional activation of CREB in presence of H89 ([1]; PKA inhibited with H89): clear dose-dependent transcriptional activation of CREB
CREB-dependent promoter transactivation [1]: increases CREB-dependent promoter transactivation
triacylglycerol accumulation in VP16-CREB-expressing cells ([7]; muristerone induced cells also treated with insulin, versus muristerone alone): triacylglycerol accumulation was enhanced
CREB phosphorylation (PCREB) [4]: increased CREB phosphorylation
change in CREB protein content [4]: −24%
ICER protein content [6]: decreased ICER content
ICER mRNA [6]: increase in ICER mRNA
P-CREB/CREB content [3]: acutely increases P-CREB/CREB content
